We go through three compounds from patent publication US20100179227A1, “Production method of hop preparation, hop preparation, anti-inflammatory agent, food product and beverage, and oral product” (priority 2006, published 2010).

One assay concerns mRNA of COX-2 gene. The experiment in a line: Suppression of COX-2 mRNA expression in gingival epithelial cells stimulated with P. gingivalis vesicles (real-time RT-PCR). It is filed as cell-based. The conditions noted are these: human gingival epithelium-derived immortalized cells stimulated with P. gingivalis-derived vesicles; mRNA measured 24 hours after addition, standardized to GAPDH mRNA. As for the experimental part: The expression levels of mRNA of COX-2 gene were determined.
The P. gingivalis-derived vesicles were prepared as follows: P. gingivalis strain (ATCC 33277) was cultured for 3 days and the cells were removed from the 500 ml culture by centrifugation and filtration. The supernatant was ultracentrifuged at 100,000 G at 4° C. for 1 hour to obtain the desired vesicles. The expression levels of mRNA of COX-2 gene were determined by measuring the amounts of mRNA by real-time RT-PCR 24 hours after addition of each substance. The PCR was performed by using primers specific for the COX-2 gene and amplification was carried out for 45 cycles. The amount of mRNA was standardized to the amount of mRNA of glyceraldehyde-3-phosphate dehydrogenase.
The 80% ethanol fraction obtained in Example 1 was fractionated by reverse-phase HPLC and the resulting fractions corresponding to the respective peaks were collected. As in Example 2, the fractions were incubated with human gingival epithelium-derived immortalized cells stimulated with the vesicles obtained from P. gingivalis (inflammation-inducing agent). The expression levels of mRNA of COX-2 were determined.

The target of another assay is cyclooxygenase-1 (COX-1) (Homo sapiens, UniProt P23219). The conditions noted are these: according to Non-Patent Document 1; cited from earlier work.
Chain of cyclooxygenase-1 (COX-1) (P23219 24-599, species assumed): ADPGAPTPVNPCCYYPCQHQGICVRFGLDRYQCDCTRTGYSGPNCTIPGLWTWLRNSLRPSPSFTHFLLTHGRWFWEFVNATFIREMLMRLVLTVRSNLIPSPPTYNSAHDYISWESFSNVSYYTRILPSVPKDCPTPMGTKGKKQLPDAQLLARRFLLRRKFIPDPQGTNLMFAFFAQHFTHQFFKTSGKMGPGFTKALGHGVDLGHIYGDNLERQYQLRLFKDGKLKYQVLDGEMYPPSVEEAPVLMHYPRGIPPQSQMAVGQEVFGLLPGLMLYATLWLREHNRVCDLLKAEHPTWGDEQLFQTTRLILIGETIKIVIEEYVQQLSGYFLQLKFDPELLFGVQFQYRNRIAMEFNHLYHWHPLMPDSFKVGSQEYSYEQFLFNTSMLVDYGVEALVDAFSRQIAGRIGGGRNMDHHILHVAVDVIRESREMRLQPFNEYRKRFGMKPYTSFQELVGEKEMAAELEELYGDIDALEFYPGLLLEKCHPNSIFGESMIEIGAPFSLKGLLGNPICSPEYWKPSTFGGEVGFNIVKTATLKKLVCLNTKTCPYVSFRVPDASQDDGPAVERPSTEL
For assay [1] the following is noted: as described in Patent Documents 1, 2 and 5; cited from earlier work.

For `CC(C)C(=O)c1c(O)cc(O)cc1O[C@@H]1O[C@H](CO)[C@@H](O)[C@H](O)[C@H]1O` [MPPG, 2-[(2-methylpropanyl)-phloroglucinol]-1-O-β-D-glucopyranoside], the “suppression of the expression of mRNA of COX-2 gene” value (shortened to “suppression”) in the assay with mRNA of COX-2 gene was “activity”. The “inhibition of cyclooxygenase-1 (COX-1)” value on cyclooxygenase-1 (COX-1) is listed as “inhibits cyclooxygenase-1 (COX-1)”.
In the case of `O=c1c(O[C@@H]2O[C@H](CO)[C@@H](O)[C@H](O)[C@H]2O)c(-c2ccc(O)cc2)oc2cc(O)cc(O)c12` [astragalin, kaempferol-3-O-β-D-glucopyranoside], in the assay on mRNA of COX-2 gene, the “suppression” value was “activity”. Further, in assay [1], the anti-inflammatory activity result is “exhibit anti-inflammatory activity”.
For `O=c1c(O[C@@H]2O[C@H](CO)[C@@H](O)[C@H](O)[C@H]2O)c(-c2ccc(O)c(O)c2)oc2cc(O)cc(O)c12` [isoquercitrin, quercetin-3-O-β-D-glucopyranoside], the “suppression” value in the assay on mRNA of COX-2 gene is on record as “activity”. Further, in assay [1], the anti-inflammatory activity entry is “exhibit anti-inflammatory activity”.
